Values of other authors, collected in article PMC2981068 (Journal of medicinal chemistry, 2010).
Marks after values point to notes of the source that are not given here.

Key:
[1] = test system: E. faecalis (VanA, strain BM4166), vancomycin- and teicoplanin-resistant; settings: footnotes d, ref [7]–[8], [4]
[2] = test system: E. faecalis (VanB, strain ATCC 51299), vancomycin-resistant and teicoplanin-sensitive; settings: footnotes d, ref [7]–[8], [4]
[3] = test system: Enterocococci bacterial strains (VanA and VanB); settings: resistant vs sensitive bacteria; ref [1d]
[4] = computationally determined, relative to 2 with ligand 3; ref [11]
[5] = test system: Staphylococcus aureus (strain ATCC 25923), vancomycin-sensitive; settings: reference not given, ref [1a],[6] as in b5

Substance	MIC E. faecalis (VanA) (value in parentheses) [1]	MIC E. faecalis (VanB) (value in parentheses) [2]	drop in antimicrobial activity on D-Ala to D-Lac change [3]	ΔΔGb cal, ligand 3 [4]	MIC for sensitive strain (comparator in text) [5]
Vancomycin [Compound 1]	2000 (2000) ^e μg/mL	125 µg/mL	1000 fold		
vancomycin aglycon [Compound 2]	640 (640) ^d, ^e μg/mL	80 µg/mL		0.0 (0.0) ^d kcal/mol	
chlorobiphenyl vancomycin [Compound 8]					0.03 µg/mL
